Source: the supplement of paper PMC7695840
Counter-ions that a name gives are not always drawn.

Experiments:
[1] = system: Staphylococcus aureus MW2 (mecA+); experiment: IC50 (growth, competition assay); settings: cefoxitin: subinhibitory
Method in brief: (§1)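 Per plate, DsRed (540/590) and GFP (485/520) readings were normalized between the medians of the single-strain controls, after which No Treatment was fixed at 0.5. These readings came from a 1:1 mix of pre-induced fluorescent S. aureus MW2 strains with and without the resistance gene, grown for 20 h at 37 °C and 90% humidity, unshaken, in LB with a daily-set subinhibitory drug dose in 1536-well plates. Per-strain IC50 meant the dose halving the No Treatment signal, or the maximal signal.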

[2] = system: Staphylococcus aureus MW2 delta-mecA (mecA-); experiment: IC50 (growth, competition assay); settings: cefoxitin: subinhibitory
Method in brief: as §1

Row | SMILES | IC50 ([1]; fluorescent label: DsRed) | IC50 ([1]; fluorescent label: GFP) | IC50 ([2]; fluorescent label: DsRed) | IC50 ([2]; fluorescent label: GFP)
1 | O=C(O[C@@H]1Cc2c(O)cc(O)cc2O[C@@H]1c1cc(O)c(O)c(O)c1)c1cc(O)c(O)c(O)c1 [EPIGALLOCATECHIN-3-MONOGALLATE] | 45.2 µM | 63.3 µM | < 9.85 µM | < 9.85 µM
2 | CN[C@H](CC(C)C)C(=O)N[C@H]1C(=O)N[C@@H](CC(N)=O)C(=O)N[C@H]2C(=O)N[C@H]3C(=O)N[C@H](C(=O)N[C@H](C(=O)O)c4cc(O)cc(O)c4-c4cc3ccc4O)[C@H](O)c3ccc(c(Cl)c3)Oc3cc2cc(c3O[C@@H]2O[C@H](CO)[C@@H](O)[C@H](O)[C@H]2O[C@H]2C[C@](C)(N)[C@H](O)[C@H](C)O2)Oc2ccc(cc2Cl)[C@H]1O [Vancomycin HCl (Vancocin)] | < 9.85 µM | < 9.85 µM | < 9.85 µM | < 9.85 µM
3 | CC(C)(Oc1ccc(C2CC2(Cl)Cl)cc1)C(=O)O (configuration not stated) [Ciprofibrate] | 93.1 µM | 107 µM | 21.6 µM | 30.6 µM
4 | CCC(=O)O[C@H]1[C@H](O[C@@H]2[C@@H](C)[C@H](O[C@H]3C[C@@](C)(OC)[C@@H](O)[C@H](C)O3)[C@@H](C)C(=O)O[C@H](CC)[C@@](C)(O)[C@H](O)[C@@H](C)C(=O)[C@H](C)C[C@@]2(C)O)O[C@H](C)C[C@@H]1N(C)C [ILOSONE] | < 9.85 µM | 17 µM | < 9.85 µM | < 9.85 µM
5 | COc1c(N2C[C@@H]3CCCN[C@@H]3C2)c(F)cc2c(=O)c(C(=O)O)cn(C3CC3)c12 [AVELOX] | < 9.85 µM | < 9.85 µM | < 9.85 µM | < 9.85 µM
6 | N[C@@H]1CN(c2c(F)cc3c(=O)c(C(=O)O)cn([C@@H]4C[C@@H]4F)c3c2Cl)CC12CC2 [Sitafloxacin hydrate] | < 0.498 µM | < 0.498 µM | < 0.498 µM | < 0.498 µM
7 | NC[C@H]1O[C@H](O[C@H]2[C@H](O)[C@@H](O[C@H]3O[C@H](CO)[C@@H](O)[C@H](N)[C@H]3O)[C@H](N)C[C@@H]2N)[C@H](N)C[C@@H]1O [Tobramycin] | 16 µM | 27.6 µM | 32 µM | 33.8 µM
8 | CC1(C)C=Cc2c(c3c(c4c(=O)c(-c5ccc(O)c(O)c5)coc24)OC(C)(C)CC3)O1 [ISOPOMIFERIN] | 27 µM | 26.6 µM | 11.8 µM | < 9.85 µM
9 | CC(=O)O[C@H]1C[C@@]2(C)[C@@H](C[C@@H](O)[C@H]3[C@@]4(C)CC[C@@H](O)[C@@H](C)[C@@H]4CC[C@@]32C)/C1=C(\CCC=C(C)C)C(=O)O [FUCIDINE] | < 9.85 µM | < 9.85 µM | < 9.85 µM | < 9.85 µM
10 | Oc1ccc(/C=C/c2ccc(/C=C/c3ccc(O)cc3)c(Br)c2)cc1 [K114] | < 9.85 µM | < 9.85 µM | < 9.85 µM | < 9.85 µM
11 | CC1(C)S[C@@H]2[C@H](NC(=O)[C@H](N)c3ccc(O)cc3)C(=O)N2[C@H]1C(=O)O [AMOXIL] | 135 µM | 106 µM | < 9.85 µM | < 9.85 µM
12 | Nc1ccc(/N=N/c2ccccc2)c(N)n1 [PYRIDIUM] | > 150 µM | > 150 µM | > 150 µM | > 150 µM
13 | O=C(N/N=C/c1ccc([N+](=O)[O-])o1)c1ccc(O)cc1 [NIFUROXAZIDE] | < 9.85 µM | 54.6 µM | 46.2 µM | < 9.85 µM
14 | Cc1onc(-c2c(Cl)cccc2Cl)c1C(=O)N[C@@H]1C(=O)N2[C@@H]1SC(C)(C)[C@@H]2C(=O)O [DYNAPEN] | < 9.85 µM | < 9.85 µM | < 9.85 µM | < 9.85 µM
15 | Cc1oc(=O)oc1CN1CCN(c2cc3c(cc2F)c(=O)c(C(=O)O)c2n3C(C)S2)CC1 (configuration not stated) [QUISNON] | < 9.85 µM | < 9.85 µM | < 9.85 µM | < 9.85 µM
16 | Clc1ccc(C(Cn2ccnc2)OCc2ccsc2Cl)c(Cl)c1 (configuration not stated) [VAGISTAT] | 29.6 µM | 30.6 µM | 16.9 µM | 15 µM
17 | CC1OC(n2cc(F)c(=O)[nH]c2=O)C(O)C1O (configuration not stated) [5-fluoro-5'-deoxyuridine] | < 9.85 µM | < 9.85 µM | < 9.85 µM | < 9.85 µM
18 | Cc1cc(SCc2sc(-c3ccc(C(F)(F)F)c(F)c3)nc2C)ccc1OCC(=O)O [GW0742] | 11.6 µM | 15.1 µM | < 9.85 µM | < 9.85 µM
19 | O=C1C=C2C(=CCOC2O)O1 (configuration not stated) [PATULIN] | 18.9 µM | 26.9 µM | < 9.85 µM | < 9.85 µM

Row | SMILES | IC50 ([1]; fluorescent label: DsRed) | IC50 ([1]; fluorescent label: GFP) | IC50 ([2]; fluorescent label: DsRed) | IC50 ([2]; fluorescent label: GFP)
20 | O=S(=O)(c1ccccc1)N(CC(F)(F)F)c1ccc(C(O)(C(F)(F)F)C(F)(F)F)cc1 | 24.6 µM | 29.6 µM | < 9.85 µM | < 9.85 µM
21 | CC[C@@H](C(=O)[C@@H](C)[C@@H](O)[C@H](C)[C@@H]1O[C@@H]([C@@H](CC)C(=O)O)CC[C@@H]1C)[C@H]1O[C@]2(C=C[C@@H](O)[C@]3(CC[C@@](C)([C@H]4CC[C@](O)(CC)[C@H](C)O4)O3)O2)[C@H](C)C[C@@H]1C [KOKCISAN] | 31.9 µM | < 9.85 µM | < 9.85 µM | 32.4 µM
22 | Cc1ccc(C(=O)N(CCCN)[C@@H](c2oc3cc(Cl)ccc3c(=O)c2Cc2ccccc2)C(C)C)cc1 | 30.8 µM | 30.6 µM | 5.93 µM | 7.88 µM
23 | CCOC(=O)[C@@H](N)Cc1ccc(-c2cc(O[C@H](c3ccc(Cl)cc3-n3ccc(C)n3)C(F)(F)F)nc(N)n2)cc1 [LX1606 hippurate] | 21.7 µM | 19.2 µM | < 9.85 µM | < 9.85 µM
24 | NS(=O)(=O)c1ccc(-n2nc(C(F)(F)F)cc2-c2ccc(Cl)cc2)cc1 [SC-236] | 94.1 µM | 97.3 µM | 26.4 µM | 16.3 µM
25 | CC[C@H]1OC(=O)[C@H](C)[C@@H](O[C@H]2C[C@@](C)(OC)[C@@H](O)[C@H](C)O2)[C@H](C)[C@@H](O[C@@H]2O[C@H](C)C[C@H](N(C)C)[C@H]2O)[C@](C)(O)C[C@@H](C)CN(C)[C@H](C)[C@@H](O)[C@]1(C)O [Azithromycin (Zithromax)] | 22.8 µM | 15.7 µM | 0.827 µM | 1.29 µM
26 | CCCCCCCCCCCCCCCCOP(=O)([O-])OCC[N+](C)(C)C [Miltefosine (Hexadecylphosphocholine)] | > 150 µM | > 150 µM | 36.2 µM | 56.8 µM
27 | CCOC(=O)CCC(=O)O[C@H]1[C@H](O[C@@H]2[C@@H](C)[C@H](O[C@H]3C[C@@](C)(OC)[C@@H](O)[C@H](C)O3)[C@@H](C)C(=O)O[C@H](CC)[C@@](C)(O)[C@H](O)[C@@H](C)C(=O)[C@H](C)C[C@@]2(C)O)O[C@H](C)C[C@@H]1N(C)C [Erythromycin Ethylsuccinate] | < 9.85 µM | < 9.85 µM | < 9.85 µM | < 9.85 µM
28 | C=C(NC(=O)C(=C)NC(=O)c1csc(C2=N[C@@H]3c4csc(n4)[C@H]4NC(=O)c5csc(n5)[C@H]([C@](C)(O)[C@@H](C)O)NC(=O)[C@H]5CSC(=N5)/C(=C/C)NC(=O)[C@H]([C@@H](C)O)NC(=O)c5csc(n5)[C@]3(CC2)NC(=O)[C@H](C)NC(=O)C(=C)NC(=O)[C@H](C)NC(=O)[C@H]([C@@H](C)CC)N[C@@H]2C=Cc3c([C@H](C)O)cc(nc3[C@H]2O)C(=O)O[C@@H]4C)n1)C(N)=O [BRYAMYCIN] | < 9.85 µM | < 9.85 µM | < 9.85 µM | < 9.85 µM
29 | CN(CC(=O)N(Cc1ccc(C2CCCCC2)cc1)c1ccc(C(=O)O)cc1)S(=O)(=O)c1c(F)c(F)c(F)c(F)c1F [SH-4-54] | < 9.85 µM | 11.5 µM | < 9.85 µM | < 9.85 µM
30 | CN(C)c1ccc(C(=C2C=CC(=[N+](C)C)C=C2)c2ccc(N(C)C)cc2)cc1 [GVS] | < 9.85 µM | < 9.85 µM | < 9.85 µM | < 9.85 µM
31 | N[C@@H](C(=O)N[C@@H]1C(=O)N2C(C(=O)O)=C(Cl)CS[C@H]12)c1ccccc1 [Cefaclor] | < 9.85 µM | < 9.85 µM | < 9.85 µM | < 9.85 µM
32 | CC1=CC(=O)c2c(O)cccc2C1=O [PLUMBAGIN] | 18 µM | 38.3 µM | < 9.85 µM | < 9.85 µM
33 | O=C(/C=C/c1ccc(O)c(O)c1)OCCc1ccccc1 [Caffeic acid phenethyl ester] | 57.7 µM | 88.4 µM | 22.9 µM | 19.4 µM
34 | O=C1C(Cl)=C(NCCN2CCOCC2)C(=O)c2ncccc21 | 33 µM | 91.7 µM | 28.8 µM | < 9.85 µM
35 | O=Nc1c(-c2c(O)[nH]c3cc(Br)ccc23)[nH]c2ccccc12 [BIO] | < 9.85 µM | < 9.85 µM | < 9.85 µM | < 9.85 µM
36 | C=CC(C1=CC(=O)C(OC)=CC1=O)c1ccccc1 (configuration not stated) [4-METHOXYDALBERGIONE] | 59.4 µM | 63.4 µM | < 9.85 µM | 13.3 µM
37 | CCCCCCCc1ccc(CCc2cccc(O)c2C(=O)O)cc1 [MG 149] | 13.6 µM | 14.5 µM | < 9.85 µM | < 9.85 µM
38 | CCn1cc(C(=O)O)c(=O)c2cnc(N3CCNCC3)nc21 [PIPEDAC] | 38 µM | 60.4 µM | 64.9 µM | 36.5 µM
